Reference: US20080015146A1, “Dpp-IV Inhibitors” (SANTHERA PHARMACEUTICALS (DEUTSCHLAND) AG, priority 2004, published 2008)
Where a name gives a salt, the structure may show the parent alone.

The compounds below were run against T1, DPP-IV (Homo sapiens, UniProt P27487) (assay: Continuous fluorimetric assay of inhibition of DPP-IV peptidase activity (cleavage of Gly-Pro-AMC)). Conditions: substrate Gly-Pro-AMC 16 μM, pH 7.4, 25° C., 1% DMSO; assays carried out with human and porcine DPP-IV (comparable activities).
T1 construct: Soluble human DPP-IV lacking the transmembrane anchor (Gly31-Pro766); Pre-Pro-alpha-mating factor secretion leader (N, cleaved yes); made in house
T1 sequence (P27487 31-766): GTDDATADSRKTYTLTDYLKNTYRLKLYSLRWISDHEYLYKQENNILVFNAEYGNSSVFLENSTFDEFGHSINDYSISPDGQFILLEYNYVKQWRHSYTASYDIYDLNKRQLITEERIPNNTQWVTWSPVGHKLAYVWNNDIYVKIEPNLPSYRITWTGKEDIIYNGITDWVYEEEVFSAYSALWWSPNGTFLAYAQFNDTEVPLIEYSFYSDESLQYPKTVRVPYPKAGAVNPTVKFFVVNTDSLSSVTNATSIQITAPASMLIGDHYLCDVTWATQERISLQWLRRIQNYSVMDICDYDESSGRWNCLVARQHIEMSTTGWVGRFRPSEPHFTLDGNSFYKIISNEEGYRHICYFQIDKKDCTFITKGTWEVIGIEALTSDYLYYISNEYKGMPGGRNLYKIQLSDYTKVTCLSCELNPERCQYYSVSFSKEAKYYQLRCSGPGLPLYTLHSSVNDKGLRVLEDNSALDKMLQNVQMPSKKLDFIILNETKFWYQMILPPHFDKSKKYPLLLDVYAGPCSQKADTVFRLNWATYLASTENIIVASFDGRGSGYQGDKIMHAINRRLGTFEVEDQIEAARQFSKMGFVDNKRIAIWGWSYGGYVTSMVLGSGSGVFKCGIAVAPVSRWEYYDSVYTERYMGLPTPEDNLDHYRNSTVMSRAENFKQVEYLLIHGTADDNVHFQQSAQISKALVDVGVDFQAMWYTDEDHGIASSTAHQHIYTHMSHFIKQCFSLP
Type: biochemical
Description: Inhibition of DPP-IV peptidase activity was monitored with a continuous fluorimetric assay. This assay is based on the cleavage of the substrate Gly-Pro-AMC (Bachem) by DPP-IV, releasing free AMC. The assay is carried out in 96-well microtiterplates. In a total volume of 100 μl compounds are preincubated with […] DPP-IV employing a buffer containing 10 mM Hepes, 150 mM NaCl, 0.005% Tween 20 (pH 7.4). […] The final concentration of DMSO is 1%. The inhibitory potential of the compounds were determined.
Soluble human DPP-IV lacking the transmembrane anchor (Gly31-Pro766) was expressed in a recombinant YEAST-strain as Pre-Pro-alpha-mating fusion. The secreted product (rhuDPP-IV-Gly31-Pro766) was purified from fermentation broth (>90% purity).

Row | Structure (SMILES) | IC50
1 | N[C@@H](CC(=O)N1CCC[C@H]1c1ncc(-c2ccccc2)[nH]1)Cc1ccccc1F [Example 41, formate salt] | 101 to 1000 nM
2 | N[C@@H](CC(=O)N1CCC[C@H]1c1cn(-c2ccccc2)nn1)Cc1ccccc1F [Example 42, formate salt] | 101 to 1000 nM
3 | N[C@@H](CC(=O)N1CCC[C@H]1c1nnc(-c2ccccc2)[nH]1)Cc1ccccc1F [Example 44, formate salt] | 101 to 1000 nM
4 | N[C@@H](CC(=O)N1CCC[C@H]1c1nnc(-c2ccccc2)o1)Cc1ccccc1F [Example 46, formate salt] | 101 to 1000 nM
5 | N[C@@H](CC(=O)N1CCC[C@H]1c1ccn(-c2ccccc2)n1)Cc1ccccc1F [Example 47, formate salt] | 101 to 1000 nM
6 | N[C@@H](CC(=O)N1CC(N2CCC(C(F)(F)F)CC2)C1)Cc1ccccc1F [Example 50, (3R)-3-Amino-4-(2-fluoro-phenyl)-1-[3-(4-trifluoromethyl-piperidin-1-yl)-azetidin-1-yl]-butan-1-one] | 1000 to 2000 nM
7 | N[C@@H](CC(=O)N1CC(N2CCN(c3ccccn3)CC2)C1)Cc1ccccc1F [Example 51, (3R)-3-Amino-4-(2-fluoro-phenyl)-1-[3-(4-pyridin-2-yl-piperazin-1-yl)-azetidin-1-yl]-butan-1-one] | 1000 to 2000 nM
8 | N[C@@H](CC(=O)N1CC(n2cccn2)C1)Cc1ccccc1F [Example 52, (3R)-3-Amino-4-(2-fluoro-phenyl)-1-(3-pyrazol-1-yl-azetidin-1-yl)-butan-1-one] | 101 to 1000 nM
9 | N[C@@H](CC(=O)N1CC(n2ccc(C3CC3)n2)C1)Cc1cc(F)c(F)cc1F [Example 55, (R)-3-Amino-1-[3-(3-cyclopropyl-pyrazol-1-yl)-azetidin-1-yl]-4-(2,4,5-trifluoro-phenyl)butan-1-one] | < 100 nM
10 | N[C@@H](CC(=O)N1CC(n2nccc2C2CC2)C1)Cc1cc(F)c(F)cc1F [Example 56, (R)-3-amino-1-[3-(5-cyclopropyl-pyrazol-1-yl)-azetidin-1-yl]-4-(2,4,5-trifluoro-phenyl)-butan-1-one] | < 100 nM

Continued, values first:

Row | IC50 | Structure (SMILES)
11 | < 100 nM | N[C@@H](CC(=O)N1CCC[C@H]1c1ncn(-c2ccccc2)n1)Cc1ccccc1F [Example 43, formate salt]
12 | < 100 nM | N[C@@H](CC(=O)N1CCC[C@H]1c1nc(-c2ccccc2)co1)Cc1ccccc1F [Example 45, formate salt]
13 | < 100 nM | CC(C)(C)n1cnc([C@@H]2CCCN2C(=O)C[C@H](N)Cc2cc(F)c(F)cc2F)n1 [Example 48]
14 | < 100 nM | CC(C)(C)c1noc([C@@H]2CCN2C(=O)C[C@H](N)Cc2cc(F)c(F)cc2F)n1 [Example 49, (R)-3-Amino-1-[(S)-2-(3-tert-butyl-[1,2,4]oxadiazol-5-yl)-azetidin-1-yl]-4-(2,4,5-trifluorophenyl)-butan-1-one formate salt]
15 | < 100 nM | N[C@@H](CC(=O)N1CC(n2ccc(C(F)(F)F)n2)C1)Cc1cc(F)c(F)cc1F [Example 53, (3R)-3-Amino-1-[3-(3-trifluoromethyl-pyrazol-1-yl)-azetidin-1-yl]-4-(2,4,5-trifluorophenyl)-butan-1-one]
16 | < 100 nM | N[C@@H](CC(=O)N1CC(n2nccc2C(F)(F)F)C1)Cc1cc(F)c(F)cc1F [Example 54, (3R)-3-amino-1-[3-(5-trifluoromethyl-pyrazol-1-yl)azetidin-1-yl]-4-(2,4,5-trifluoro-phenyl)-butan-1-one]
